Measurements reported in PubChem BioAssay (NCI).
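How tested: cells in 96-well plates exposed to compound for 48 hours at five concentrations. GI50 is the concentration that inhibits growth by half. TGI: concentration producing complete growth inhibition.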

System: 786-0 renal
Assay: NCI-60 cell line screen, 48 h

| SMILES | TGI [µM] | GI50 [µM] |
| --- | --- | --- |
| OC/C=C(\I)CCCOCOCc1ccccc1 | > 100 | – |
| CCc1ccc(Nc2ccc([N+](=O)[O-])cc2[N+](=O)[O-])cc1 | > 100 | – |
| COC(=O)c1cc(C)c(C)c2c1NC(=O)CNC2=O | > 100 | – |
| COc1cccc(N2C(=O)[C@H]3CC(C)c4c([nH]c5ccccc45)[C@H]3C2=O)c1 (stereo not given in full) | 50.5 | – |
| N#CCC(=O)NC1C2CC3CC(C2)CC1C3 (stereo not given) | 35.8 | – |
| CCO/N=C(/N)c1ncn(Cc2ccccc2)c1NCC(OCC)OCC | > 100 | – |
| N.N.O=C([O-])P(=O)([O-])[O-].[Na+].[Pt+4] | > 100 | > 100 |

System: A498 renal
Assay: NCI-60 cell line screen, 48 h

| SMILES | TGI [µM] | GI50 [µM] |
| --- | --- | --- |
| OC/C=C(\I)CCCOCOCc1ccccc1 | > 100 | – |
| CCc1ccc(Nc2ccc([N+](=O)[O-])cc2[N+](=O)[O-])cc1 | 66.9 | – |
| COC(=O)c1cc(C)c(C)c2c1NC(=O)CNC2=O | > 100 | – |
| COc1cccc(N2C(=O)[C@H]3CC(C)c4c([nH]c5ccccc45)[C@H]3C2=O)c1 (stereo not given in full) | > 100 | – |
| N#CCC(=O)NC1C2CC3CC(C2)CC1C3 (stereo not given) | 30.2 | – |
| CCO/N=C(/N)c1ncn(Cc2ccccc2)c1NCC(OCC)OCC | > 100 | – |
| N.N.O=C([O-])P(=O)([O-])[O-].[Na+].[Pt+4] | > 100 | > 100 |

System: A549 NSCLC
Assay: NCI-60 cell line screen, 48 h

| SMILES | TGI [µM] | GI50 [µM] |
| --- | --- | --- |
| OC/C=C(\I)CCCOCOCc1ccccc1 | > 100 | – |
| CCc1ccc(Nc2ccc([N+](=O)[O-])cc2[N+](=O)[O-])cc1 | > 100 | – |
| COC(=O)c1cc(C)c(C)c2c1NC(=O)CNC2=O | > 100 | – |
| COc1cccc(N2C(=O)[C@H]3CC(C)c4c([nH]c5ccccc45)[C@H]3C2=O)c1 (stereo not given in full) | > 100 | – |
| N#CCC(=O)NC1C2CC3CC(C2)CC1C3 (stereo not given) | > 100 | – |
| CCO/N=C(/N)c1ncn(Cc2ccccc2)c1NCC(OCC)OCC | > 100 | – |
| N.N.O=C([O-])P(=O)([O-])[O-].[Na+].[Pt+4] | > 100 | > 100 |

System: ACHN renal
Assay: NCI-60 cell line screen, 48 h

| SMILES | TGI [µM] | GI50 [µM] |
| --- | --- | --- |
| OC/C=C(\I)CCCOCOCc1ccccc1 | > 100 | – |
| CCc1ccc(Nc2ccc([N+](=O)[O-])cc2[N+](=O)[O-])cc1 | > 100 | – |
| COC(=O)c1cc(C)c(C)c2c1NC(=O)CNC2=O | > 100 | – |
| N#CCC(=O)NC1C2CC3CC(C2)CC1C3 (stereo not given) | 33.3 | – |
| CCO/N=C(/N)c1ncn(Cc2ccccc2)c1NCC(OCC)OCC | > 100 | – |
| N.N.O=C([O-])P(=O)([O-])[O-].[Na+].[Pt+4] | > 100 | > 100 |

System: CAKI-1 renal
Assay: NCI-60 cell line screen, 48 h

| SMILES | TGI [µM] | GI50 [µM] |
| --- | --- | --- |
| CCc1ccc(Nc2ccc([N+](=O)[O-])cc2[N+](=O)[O-])cc1 | > 100 | – |
| COC(=O)c1cc(C)c(C)c2c1NC(=O)CNC2=O | > 100 | – |
| COc1cccc(N2C(=O)[C@H]3CC(C)c4c([nH]c5ccccc45)[C@H]3C2=O)c1 (stereo not given in full) | > 100 | – |
| N#CCC(=O)NC1C2CC3CC(C2)CC1C3 (stereo not given) | 34.1 | – |
| CCO/N=C(/N)c1ncn(Cc2ccccc2)c1NCC(OCC)OCC | > 100 | – |
| N.N.O=C([O-])P(=O)([O-])[O-].[Na+].[Pt+4] | > 100 | > 100 |

System: CCRF-CEM leukemia
Assay: NCI-60 cell line screen, 48 h

| SMILES | TGI [µM] | GI50 [µM] |
| --- | --- | --- |
| OC/C=C(\I)CCCOCOCc1ccccc1 | 46.1 | – |
| CCc1ccc(Nc2ccc([N+](=O)[O-])cc2[N+](=O)[O-])cc1 | > 100 | – |
| COC(=O)c1cc(C)c(C)c2c1NC(=O)CNC2=O | > 100 | – |
| COc1cccc(N2C(=O)[C@H]3CC(C)c4c([nH]c5ccccc45)[C@H]3C2=O)c1 (stereo not given in full) | > 100 | – |
| N#CCC(=O)NC1C2CC3CC(C2)CC1C3 (stereo not given) | > 100 | – |
| CCO/N=C(/N)c1ncn(Cc2ccccc2)c1NCC(OCC)OCC | > 100 | – |
| N.N.O=C([O-])P(=O)([O-])[O-].[Na+].[Pt+4] | > 100 | > 100 |

System: COLO 205 colon
Assay: NCI-60 cell line screen, 48 h

| SMILES | TGI [µM] | GI50 [µM] |
| --- | --- | --- |
| OC/C=C(\I)CCCOCOCc1ccccc1 | > 100 | – |
| COC(=O)c1cc(C)c(C)c2c1NC(=O)CNC2=O | > 100 | – |
| COc1cccc(N2C(=O)[C@H]3CC(C)c4c([nH]c5ccccc45)[C@H]3C2=O)c1 (stereo not given in full) | > 100 | – |
| N#CCC(=O)NC1C2CC3CC(C2)CC1C3 (stereo not given) | 34 | – |
| CCO/N=C(/N)c1ncn(Cc2ccccc2)c1NCC(OCC)OCC | > 100 | – |
| N.N.O=C([O-])P(=O)([O-])[O-].[Na+].[Pt+4] | > 100 | > 100 |

System: DLD-1 colon
Assay: NCI-60 cell line screen, 48 h

| SMILES | TGI [µM] | GI50 [µM] |
| --- | --- | --- |
| OC/C=C(\I)CCCOCOCc1ccccc1 | > 100 | – |
| CCc1ccc(Nc2ccc([N+](=O)[O-])cc2[N+](=O)[O-])cc1 | > 100 | – |
| COC(=O)c1cc(C)c(C)c2c1NC(=O)CNC2=O | > 100 | – |
| COc1cccc(N2C(=O)[C@H]3CC(C)c4c([nH]c5ccccc45)[C@H]3C2=O)c1 (stereo not given in full) | > 100 | – |
| N#CCC(=O)NC1C2CC3CC(C2)CC1C3 (stereo not given) | 48.9 | – |
| CCO/N=C(/N)c1ncn(Cc2ccccc2)c1NCC(OCC)OCC | > 100 | – |
| N.N.O=C([O-])P(=O)([O-])[O-].[Na+].[Pt+4] | > 100 | > 100 |

System: DMS 114 small cell lung
Assay: NCI-60 cell line screen, 48 h

| SMILES | TGI [µM] |
| --- | --- |
| OC/C=C(\I)CCCOCOCc1ccccc1 | 69 |
| CCc1ccc(Nc2ccc([N+](=O)[O-])cc2[N+](=O)[O-])cc1 | > 100 |
| COC(=O)c1cc(C)c(C)c2c1NC(=O)CNC2=O | > 100 |
| N#CCC(=O)NC1C2CC3CC(C2)CC1C3 (stereo not given) | 30.5 |
| CCO/N=C(/N)c1ncn(Cc2ccccc2)c1NCC(OCC)OCC | > 100 |

System: DMS 273 small cell lung
Assay: NCI-60 cell line screen, 48 h

| SMILES | TGI [µM] | GI50 [µM] |
| --- | --- | --- |
| OC/C=C(\I)CCCOCOCc1ccccc1 | 44.4 | – |
| CCc1ccc(Nc2ccc([N+](=O)[O-])cc2[N+](=O)[O-])cc1 | > 100 | – |
| COC(=O)c1cc(C)c(C)c2c1NC(=O)CNC2=O | > 100 | – |
| COc1cccc(N2C(=O)[C@H]3CC(C)c4c([nH]c5ccccc45)[C@H]3C2=O)c1 (stereo not given in full) | > 100 | – |
| N#CCC(=O)NC1C2CC3CC(C2)CC1C3 (stereo not given) | 48.2 | – |
| CCO/N=C(/N)c1ncn(Cc2ccccc2)c1NCC(OCC)OCC | > 100 | – |
| N.N.O=C([O-])P(=O)([O-])[O-].[Na+].[Pt+4] | > 100 | > 100 |

System: EKVX NSCLC
Assay: NCI-60 cell line screen, 48 h

| SMILES | TGI [µM] | GI50 [µM] |
| --- | --- | --- |
| OC/C=C(\I)CCCOCOCc1ccccc1 | > 100 | – |
| CCc1ccc(Nc2ccc([N+](=O)[O-])cc2[N+](=O)[O-])cc1 | > 100 | – |
| COC(=O)c1cc(C)c(C)c2c1NC(=O)CNC2=O | > 100 | – |
| COc1cccc(N2C(=O)[C@H]3CC(C)c4c([nH]c5ccccc45)[C@H]3C2=O)c1 (stereo not given in full) | > 100 | – |
| N#CCC(=O)NC1C2CC3CC(C2)CC1C3 (stereo not given) | 33.9 | – |
| CCO/N=C(/N)c1ncn(Cc2ccccc2)c1NCC(OCC)OCC | > 100 | – |
| N.N.O=C([O-])P(=O)([O-])[O-].[Na+].[Pt+4] | > 100 | > 100 |

System: HCC-2998 colon
Assay: NCI-60 cell line screen, 48 h

| SMILES | TGI [µM] | GI50 [µM] |
| --- | --- | --- |
| OC/C=C(\I)CCCOCOCc1ccccc1 | > 100 | – |
| CCc1ccc(Nc2ccc([N+](=O)[O-])cc2[N+](=O)[O-])cc1 | > 100 | – |
| COC(=O)c1cc(C)c(C)c2c1NC(=O)CNC2=O | > 100 | – |
| COc1cccc(N2C(=O)[C@H]3CC(C)c4c([nH]c5ccccc45)[C@H]3C2=O)c1 (stereo not given in full) | > 100 | – |
| N#CCC(=O)NC1C2CC3CC(C2)CC1C3 (stereo not given) | 31.9 | – |
| CCO/N=C(/N)c1ncn(Cc2ccccc2)c1NCC(OCC)OCC | > 100 | – |
| N.N.O=C([O-])P(=O)([O-])[O-].[Na+].[Pt+4] | > 100 | > 100 |

System: HCT-116 colon
Assay: NCI-60 cell line screen, 48 h

| SMILES | TGI [µM] | GI50 [µM] |
| --- | --- | --- |
| OC/C=C(\I)CCCOCOCc1ccccc1 | > 100 | – |
| CCc1ccc(Nc2ccc([N+](=O)[O-])cc2[N+](=O)[O-])cc1 | > 100 | – |
| COC(=O)c1cc(C)c(C)c2c1NC(=O)CNC2=O | > 100 | – |
| N#CCC(=O)NC1C2CC3CC(C2)CC1C3 (stereo not given) | 29.2 | – |
| CCO/N=C(/N)c1ncn(Cc2ccccc2)c1NCC(OCC)OCC | > 100 | – |
| N.N.O=C([O-])P(=O)([O-])[O-].[Na+].[Pt+4] | > 100 | > 100 |

System: HCT-15 colon
Assay: NCI-60 cell line screen, 48 h

| SMILES | TGI [µM] |
| --- | --- |
| OC/C=C(\I)CCCOCOCc1ccccc1 | > 100 |
| CCc1ccc(Nc2ccc([N+](=O)[O-])cc2[N+](=O)[O-])cc1 | > 100 |
| COC(=O)c1cc(C)c(C)c2c1NC(=O)CNC2=O | > 100 |
